Laboratory results reported in US12139520B2 (priority 2020, dated 2024).
pEC50: −log10 of the molar value. Numbered stars: 1 amine (or outer) side, 2 acyl side, 3 side chain; on linkers, the order of the positions; unused ones are H or OH. Bridge positions count the residues as written; N and C are the ends. Square brackets hold non-standard residues; d marks the D form. Peptide text beside a SMILES is read from it. * marks the point of attachment. C20 diacid = O=C(O)CCCCCCCCCCCCCCCCCCC(=O)*; γGlu = O=C(O)[C@H](CCC(=O)[*:2])N[*:1]; Hyp = O=C(O)[C@@H]1C[C@@H](O)CN1

Tests used:
[1] = biological target: T1, hAMY3 receptor (Homo sapiens, UniProt O60896+P30988); experiment: cAMP assay for in vitro receptor activation, hAMY3-R; type: cell-based; settings: cAMP assay, hAMY3 receptor; read-out: hAMY3R EC50
T1 sequence (P30988 25-474): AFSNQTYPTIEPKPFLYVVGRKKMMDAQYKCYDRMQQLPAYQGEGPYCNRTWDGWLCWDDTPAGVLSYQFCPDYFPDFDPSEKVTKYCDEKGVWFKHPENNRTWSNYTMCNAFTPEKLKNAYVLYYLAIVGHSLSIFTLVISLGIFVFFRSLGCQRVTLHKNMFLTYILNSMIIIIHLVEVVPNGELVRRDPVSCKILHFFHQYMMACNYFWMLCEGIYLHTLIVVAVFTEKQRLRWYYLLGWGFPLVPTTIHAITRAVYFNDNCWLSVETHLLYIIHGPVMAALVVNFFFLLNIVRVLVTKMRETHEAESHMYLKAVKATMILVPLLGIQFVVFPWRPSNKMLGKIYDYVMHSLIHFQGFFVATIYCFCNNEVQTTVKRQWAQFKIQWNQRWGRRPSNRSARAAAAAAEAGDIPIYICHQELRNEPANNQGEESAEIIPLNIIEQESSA
T1 sequence (O60896 24-148 partner): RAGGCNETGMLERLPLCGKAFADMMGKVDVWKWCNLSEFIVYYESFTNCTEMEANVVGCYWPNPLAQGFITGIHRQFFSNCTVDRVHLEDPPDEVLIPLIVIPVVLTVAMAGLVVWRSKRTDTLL
Outline: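 Stable hAMY3 cells; DPBS + 0.05% casein + 0.5 mM IBMX; graded compound doses, 30 min, RT; cAMP via HTRF Gs kit, TR-FRET read at 1 h.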

[2] = biological target: hAM1 receptor (Homo sapiens, UniProt O60895+Q16602); experiment: cAMP assay for in vitro receptor activation, hAM1-R; type: cell-based; settings: cAMP assay, hAM1 receptor; read-out: hAM1R EC50
Chain of hAM1 receptor (Q16602 23-461): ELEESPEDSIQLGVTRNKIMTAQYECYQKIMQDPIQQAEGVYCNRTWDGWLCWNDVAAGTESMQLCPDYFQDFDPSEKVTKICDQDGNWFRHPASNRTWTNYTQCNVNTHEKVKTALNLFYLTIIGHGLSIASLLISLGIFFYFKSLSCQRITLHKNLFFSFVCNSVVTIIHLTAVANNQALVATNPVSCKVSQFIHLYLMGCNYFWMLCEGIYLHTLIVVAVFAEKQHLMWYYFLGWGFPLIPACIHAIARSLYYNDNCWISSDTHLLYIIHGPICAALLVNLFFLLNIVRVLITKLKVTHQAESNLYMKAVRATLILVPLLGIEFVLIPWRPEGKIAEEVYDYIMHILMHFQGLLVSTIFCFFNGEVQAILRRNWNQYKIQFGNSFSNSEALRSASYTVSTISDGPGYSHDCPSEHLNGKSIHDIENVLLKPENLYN
Chain of hAM1 receptor (O60895 43-175 partner): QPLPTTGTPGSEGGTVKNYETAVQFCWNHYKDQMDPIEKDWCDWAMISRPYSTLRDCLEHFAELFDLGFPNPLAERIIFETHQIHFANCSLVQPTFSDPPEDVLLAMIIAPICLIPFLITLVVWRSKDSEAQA
Outline: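 Monoclonal stable hAM1-overexpressing cells, thawed from frozen stock; 8000 cells/well in DPBS + 0.05% casein + 0.5 mM IBMX; read-out cAMP.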

[3] = Acute food intake study in lean rats; type: in vivo, rat; settings: single SC injection, lean healthy rats; for Average cumulative food intake: up to 48 h, P < 0.001 vs vehicle
Procedure: General Protocols for Acute Food Intake Study
The effect on cumulative food intake was measured in male Sprague Dawley rats (6 weeks of age, Taconic, Denmark) following a single dose using a fully automated food intake monitoring system (HM-2; MBRose ApS, Faaborg, Denmark), allowing for advanced synchronous real-time monitoring of food intake behaviour of individual animals. The animals were housed in groups of 4 in a light-, temperature-, and humidity-controlled room (a 12/12 LD cycle, lights on at 02:00 AM; 22±2° C.; 50% relative humidity). The mice had ad libitum access to regular chow diet (Altromin 1324, Brogaarden A/S, Lynge, Denmark) and domestic quality tap water. Mice arrived at day 7, and a minimum of 5 days of habituation to the system was allowed prior to beginning of the study. During these days, the animals were handled daily to accustom them to the experimental paradigm. On the day of dosing, the animals were randomized into groups according to body weight. Animals were fasted for four hours prior to dosing. Animals were dosed SC 30 or 180 min prior to lights out, and food intake data were collected automatically for a total of 48 h post-dosing with automatic food recordings every 5 min.

[4] = Physical stability of peptide analogues (Thioflavin T fibrillation); type: physicochemical; settings: maximum ThT signal normalized between hAMY maximum and buffer background; 40° C., shaking, four days; pH 7 per table title
Outline: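 Maximum ThT emission at 480 nm, after LOESS smoothing, is given as percent of the span from buffer background to hAMY. Conditions: 50 mM buffer at pH 4 or 7, 4 μM dye, 40 °C, repeated shaking, readings every 10 min for four days.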

SMILES | pEC50 [1] | pEC50 [2] | cumulative food intake, % to vehicle ([3]; 10 nmol/kg) | Average cumulative food intake ([3]; 10 nmol/kg) | cumulative food intake, % to vehicle ([3]; 30 nmol/kg) | Average cumulative food intake ([3]; 30 nmol/kg) | Max ThT signal (%) [4]
CC[C@H](C)[C@H](NC(=O)[C@H](CCC(N)=O)NC(=O)[C@H](Cc1c[nH]cn1)NC(=O)[C@H](C)NC(=O)[C@H](CC(C)C)NC(=O)[C@H](CCCNC(=N)N)NC(=O)[C@H](CC(=O)O)NC(=O)[C@@H](NC(=O)[C@@H](NC(=O)[C@@H]1CSSC[C@H](NC(=O)[C@H](CCCCN)NC(=O)CC[C@H](NC(=O)CCCCCCCCCCCCCCCCCCC(=O)O)C(=O)O)C(=O)N[C@@H](CC(N)=O)C(=O)N[C@@H]([C@@H](C)O)C(=O)N[C@@H](C)C(=O)N[C@@H]([C@@H](C)O)C(=O)N1)[C@@H](C)O)C(C)C)C(=O)N[C@@H](Cc1ccc(O)cc1)C(=O)N[C@@H](CCC(N)=O)C(=O)N[C@@H](Cc1ccccc1)C(=O)N[C@H](C(=O)N[C@@H](CC(=O)O)C(=O)N[C@@H](CCCCN)C(=O)N[C@@H](CC(=O)O)C(=O)N[C@@H](CCCCN)C(=O)N[C@@H](CC(=O)O)C(=O)N[C@@H](CC(N)=O)C(=O)N[C@H](C(=O)N[C@@H](C)C(=O)N1CCC[C@H]1C(=O)N1CCC[C@H]1C(=O)N[C@H](C(=O)N[C@@H](CC(N)=O)C(=O)N[C@H](C(=O)NCC(=O)N[C@@H](CO)C(=O)N[C@@H](CC(N)=O)C(=O)NCC(=O)N1C[C@H](O)C[C@H]1C(N)=O)C(C)C)[C@@H](C)O)C(C)C)[C@@H](C)O [compound 4] ({C20 diacid-γGlu}-KCNTATCTVDRLAHQIYQFTDKDKDNVAPPTNVGSNG[Hyp]-NH2; disulfide 2-7) | 11.22 | < 5.30 | 59.23% | 26.3 g | 30.86% | 13.7 g | 
CC[C@H](C)[C@H](NC(=O)[C@H](CCC(N)=O)NC(=O)[C@H](Cc1c[nH]cn1)NC(=O)[C@H](C)NC(=O)[C@H](CC(C)C)NC(=O)[C@H](CCCNC(=N)N)NC(=O)[C@H](CCC(N)=O)NC(=O)[C@@H](NC(=O)[C@@H](NC(=O)[C@@H]1CSSC[C@H](NC(=O)[C@H](CCCCN)NC(=O)CC[C@H](NC(=O)CCCCCCCCCCCCCCCCCCC(=O)O)C(=O)O)C(=O)N[C@@H](CC(N)=O)C(=O)N[C@@H]([C@@H](C)O)C(=O)N[C@@H](C)C(=O)N[C@@H]([C@@H](C)O)C(=O)N1)[C@@H](C)O)C(C)C)C(=O)N[C@@H](C)C(=O)N[C@@H](CCC(N)=O)C(=O)N[C@@H](Cc1ccccc1)C(=O)N[C@H](C(=O)N[C@@H](CC(=O)O)C(=O)N[C@@H](CCCCN)C(=O)N[C@@H](CC(=O)O)C(=O)N[C@@H](CCCCN)C(=O)N[C@@H](CC(=O)O)C(=O)N[C@@H](CC(N)=O)C(=O)N[C@H](C(=O)N[C@@H](C)C(=O)N1CCC[C@H]1C(=O)N1CCC[C@H]1C(=O)N[C@H](C(=O)N[C@@H](CC(N)=O)C(=O)N[C@H](C(=O)NCC(=O)N[C@@H](CO)C(=O)N[C@@H](CC(N)=O)C(=O)N[C@@H](CO)C(=O)N1C[C@H](O)C[C@H]1C(N)=O)C(C)C)[C@@H](C)O)C(C)C)[C@@H](C)O [compound 69] ({C20 diacid-γGlu}-KCNTATCTVQRLAHQIAQFTDKDKDNVAPPTNVGSNS[Hyp]-NH2; disulfide 2-7) | 10.89 |  | 17.52% | 7.13 g |  |  | 
CC[C@H](C)[C@H](NC(=O)[C@H](CCCCN)NC(=O)[C@@H](NC(=O)[C@H](CCCNC(=N)N)NC(=O)[C@@H]1CCCN1C(=O)[C@H](C)NC(=O)[C@@H](NC(=O)[C@H](CC(N)=O)NC(=O)[C@H](CC(=O)O)NC(=O)[C@H](CCCCN)NC(=O)[C@H](CC(=O)O)NC(=O)[C@H](CCCCN)NC(=O)[C@H](CC(=O)O)NC(=O)[C@@H](NC(=O)[C@H](Cc1ccccc1)NC(=O)[C@H](CCC(N)=O)NC(=O)[C@H](Cc1ccc(O)cc1)NC(=O)[C@@H](NC(=O)[C@H](CCC(N)=O)NC(=O)[C@H](Cc1c[nH]cn1)NC(=O)[C@H](C)NC(=O)[C@H](CC(C)C)NC(=O)[C@H](CCCNC(=N)N)NC(=O)[C@H](CCC(N)=O)NC(=O)[C@@H](NC(=O)[C@@H](NC(=O)[C@@H]1CSSC[C@H](NC(=O)CN)C(=O)N[C@@H](CCCNC(=N)N)C(=O)N[C@@H](Cc2ccccc2)C(=O)NCC(=O)N[C@@H]([C@@H](C)O)C(=O)N1)[C@@H](C)O)C(C)C)[C@@H](C)CC)[C@@H](C)O)C(C)C)[C@@H](C)O)C(=O)NCC(=O)N1CCC[C@H]1C(=O)N[C@@H](CC(N)=O)C(=O)NCC(=O)N1C[C@H](O)C[C@H]1C(N)=O [compound 124] (H-GCRFGTCTVQRLAHQIYQFTDKDKDNVAPRTKIGPNG[Hyp]-NH2; disulfide 2-7) | 10.57 |  | 59.46% | 24.2 g |  |  | 4.800%
CC[C@H](C)[C@H](NC(=O)[C@H](CCC(N)=O)NC(=O)[C@H](Cc1c[nH]cn1)NC(=O)[C@H](C)NC(=O)[C@H](CC(C)C)NC(=O)[C@H](CCCNC(=N)N)NC(=O)[C@H](CCC(N)=O)NC(=O)[C@@H](NC(=O)[C@@H](NC(=O)[C@@H]1CSSC[C@H](NC(=O)CN)C(=O)N[C@@H](CCCNC(=N)N)C(=O)N[C@@H](Cc2ccccc2)C(=O)NCC(=O)N[C@@H]([C@@H](C)O)C(=O)N1)[C@@H](C)O)C(C)C)C(=O)N[C@@H](Cc1ccc(O)cc1)C(=O)N[C@@H](CCC(N)=O)C(=O)N[C@@H](Cc1ccccc1)C(=O)N[C@H](C(=O)N[C@@H](CC(=O)O)C(=O)N[C@@H](CCCCN)C(=O)N[C@@H](CC(=O)O)C(=O)N[C@@H](CCCCN)C(=O)N[C@@H](CC(=O)O)C(=O)N[C@@H](CC(N)=O)C(=O)N[C@H](C(=O)N[C@@H](C)C(=O)N1CCC[C@H]1C(=O)N[C@@H](CCCNC(=N)N)C(=O)N[C@@H](CO)C(=O)N[C@@H](CC(N)=O)C(=O)N[C@H](C(=O)NCC(=O)N1CCC[C@H]1C(=O)N[C@@H](CCC(N)=O)C(=O)NCC(=O)N[C@@H](Cc1ccc(O)cc1)C(N)=O)C(C)C)C(C)C)[C@@H](C)O [compound 374] (H-GCRFGTCTVQRLAHQIYQFTDKDKDNVAPRSNVGPQGY-NH2; disulfide 2-7; N-terminus assumed) | 10.68 | 7.92 |  |  |  |  | 4.800%
CC[C@H](C)[C@H](NC(=O)[C@H](CCC(N)=O)NC(=O)[C@H](Cc1c[nH]cn1)NC(=O)[C@H](C)NC(=O)[C@H](CC(C)C)NC(=O)[C@H](CCCNC(=N)N)NC(=O)[C@H](CCC(N)=O)NC(=O)[C@@H](NC(=O)[C@@H](NC(=O)[C@@H]1CSSC[C@H](NC(=O)CN)C(=O)N[C@@H](CCCNC(=N)N)C(=O)N[C@@H](Cc2ccccc2)C(=O)NCC(=O)N[C@@H]([C@@H](C)O)C(=O)N1)[C@@H](C)O)C(C)C)C(=O)N[C@@H](Cc1ccc(O)cc1)C(=O)N[C@@H](CCC(N)=O)C(=O)N[C@@H](Cc1ccccc1)C(=O)N[C@H](C(=O)N[C@@H](CC(=O)O)C(=O)N[C@@H](CCCCN)C(=O)N[C@@H](CC(=O)O)C(=O)N[C@@H](CCCCN)C(=O)N[C@@H](CC(=O)O)C(=O)N[C@@H](CC(N)=O)C(=O)N[C@H](C(=O)N[C@@H](C)C(=O)N1CCC[C@H]1C(=O)N[C@@H](CCCNC(=N)N)C(=O)N[C@@H](CO)C(=O)N[C@@H](CC(N)=O)C(=O)N[C@H](C(=O)N[C@@H](CO)C(=O)N1CCC[C@H]1C(=O)N[C@@H](CC(N)=O)C(=O)NCC(=O)N[C@@H](Cc1ccc(O)cc1)C(N)=O)[C@@H](C)CC)C(C)C)[C@@H](C)O [compound 383] (H-GCRFGTCTVQRLAHQIYQFTDKDKDNVAPRSNISPNGY-NH2; disulfide 2-7; N-terminus assumed) | 10.47 | 8.23 |  |  |  |  | 9.600%
